Test results: PubChem BioAssay AID248 (DTP/NCI, 2004)
“And” between values parts separate entries of the source, which are not always exact repeats. Identical values can stand only once. Toxic doses and inconclusive results are not listed.

Tested on: L1210 leukemia ip in BDF1 mice, survival T/C
Test: NCI In Vivo Anticancer Drug Screen. Data for tumor model L1210 Leukemia (intraperitoneal) in B6D2F1 (BDF1) mice
Conditions: higher = longer survival
Procedure, shortened: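 Mice bearing the transplanted tumor received compound or vehicle. Survival of the treated group was divided by that of the vehicle-treated control group to give the ratio.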

For `CC(C)[C@]12O[C@H]1[C@@H]1O[C@]13[C@]1(O[C@H]1C[C@H]1C4=C(C(=O)OC4)[C@@H](O)C[C@@]13C)[C@@H]2O`, the T/C (endpoint: mean survival time, dose: 2.4 micrograms/kg/injection, schedule: Q01DX009 (oral), vehicle: Klucel (hydroxypropylcellulose) (HPC)) was 105 % of control, the T/C (endpoint: mean survival time, dose: 4.8 micrograms/kg/injection, schedule: Q01DX009 (oral), vehicle: Klucel (hydroxypropylcellulose) (HPC)) was 102 % of control and the T/C (endpoint: mean survival time, dose: 9.5 micrograms/kg/injection, schedule: Q01DX009 (oral), vehicle: Klucel (hydroxypropylcellulose) (HPC)) was 101 % of control. For the same compound, the T/C (endpoint: mean survival time, dose: 13.0 micrograms/kg/injection, schedule: Q01DX009 (ip), vehicle: saline) was 94 % of control and 111 % of control, the T/C (endpoint: mean survival time, dose: 19.0 micrograms/kg/injection, schedule: Q01DX009 (oral), vehicle: Klucel (hydroxypropylcellulose) (HPC)) was 116 % of control and the T/C (endpoint: mean survival time, dose: 25.0 micrograms/kg/injection, schedule: Q01DX009 (ip), vehicle: saline) was 108 % of control and 110 % of control. The T/C (endpoint: mean survival time, dose: 38.0 micrograms/kg/injection, schedule: Q01DX009 (oral), vehicle: Klucel (hydroxypropylcellulose) (HPC)) was 107 % of control, the T/C (endpoint: mean survival time, dose: 38.0 micrograms/kg/injection, schedule: Q01DX009 (oral), vehicle: saline + alcohol) was 103 % of control and the T/C (endpoint: mean survival time, dose: 100.0 micrograms/kg/injection, schedule: Q01DX009 (ip), vehicle: saline) was 150 % of control and 159 % of control. For the same compound, the T/C (endpoint: mean survival time, dose: 200.0 micrograms/kg/injection, schedule: Q01DX009 (ip), vehicle: saline) was 198 % of control, the T/C (endpoint: median survival time, dose: 0.06 mg/kg/injection, schedule: Q01DX009 (ip), vehicle: saline + alcohol) was 113 % of control and the T/C (endpoint: median survival time, dose: 0.06 mg/kg/injection, schedule: Q01DX009 (ip), vehicle: saline with Tween-80) was 114 % of control and 124 % of control. For the same compound, the T/C (endpoint: median survival time, dose: 0.06 mg/kg/injection, schedule: Q01DX009 (sc), vehicle: saline + alcohol) was 102 % of control, the T/C (endpoint: median survival time, dose: 0.06 mg/kg/injection, schedule: Q04DX003 (ip), vehicle: saline + alcohol) was 98 % of control and the T/C (endpoint: median survival time, dose: 0.12 mg/kg/injection, schedule: Q01DX009 (sc), vehicle: saline + alcohol) was 107 % of control. The T/C (endpoint: median survival time, dose: 0.12 mg/kg/injection, schedule: Q04DX003 (ip), vehicle: saline + alcohol) was 106 % of control, the T/C (endpoint: median survival time, dose: 0.12 mg/kg/injection, schedule: Q08DX002 (ip), vehicle: saline + alcohol) was 102 % of control and the T/C (endpoint: median survival time, dose: 0.13 mg/kg/injection, schedule: Q01DX009 (ip), vehicle: saline + alcohol) was 156 % of control. The T/C (endpoint: median survival time, dose: 0.13 mg/kg/injection, schedule: Q01DX009 (oral), vehicle: saline + alcohol) was 100 % of control and 120 % of control, the T/C (endpoint: median survival time, dose: 0.25 mg/kg/injection, schedule: Q01DX001 (ip), vehicle: saline + alcohol) was 102 % of control and the T/C (endpoint: median survival time, dose: 0.25 mg/kg/injection, schedule: Q01DX009 (ip), vehicle: saline + alcohol) was 178 % of control and 195 % of control. The T/C (endpoint: median survival time, dose: 0.25 mg/kg/injection, schedule: Q01DX009 (ip), vehicle: saline with Tween-80) was 185 % of control and 202 % of control, the T/C (endpoint: median survival time, dose: 0.25 mg/kg/injection, schedule: Q01DX009 (sc), vehicle: saline + alcohol) was 151 % of control and the T/C (endpoint: median survival time, dose: 0.25 mg/kg/injection, schedule: Q04DX003 (ip), vehicle: saline + alcohol) was 107 % of control. The T/C (endpoint: median survival time, dose: 0.25 mg/kg/injection, schedule: Q08DX002 (ip), vehicle: saline + alcohol) was 109 % of control, the T/C (endpoint: median survival time, dose: 0.5 mg/kg/injection, schedule: Q01DX001 (ip), vehicle: saline + alcohol) was 113 % of control and the T/C (endpoint: median survival time, dose: 0.5 mg/kg/injection, schedule: Q01DX009 (ip), vehicle: saline + alcohol) was 95 % of control. The T/C (endpoint: median survival time, dose: 0.5 mg/kg/injection, schedule: Q04DX003 (ip), vehicle: saline + alcohol) was 113 % of control, the T/C (endpoint: median survival time, dose: 0.5 mg/kg/injection, schedule: Q08DX002 (ip), vehicle: saline + alcohol) was 114 % of control and the T/C (endpoint: median survival time, dose: 8.0 micrograms/kg/injection, schedule: Q03HX024 (ip), vehicle: saline + alcohol) was 104 % of control. The T/C (endpoint: median survival time, dose: 8.0 micrograms/kg/injection, schedule: Q03HX024 (sc), vehicle: saline + alcohol) was 94 % of control, the T/C (endpoint: median survival time, dose: 15.6 micrograms/kg/injection, schedule: Q03HX024 (sc), vehicle: saline + alcohol) was 98 % of control and the T/C (endpoint: median survival time, dose: 16.0 micrograms/kg/injection, schedule: Q03HX024 (oral), vehicle: saline + alcohol) was 98 % of control and 101 % of control. The T/C (endpoint: median survival time, dose: 31.2 micrograms/kg/injection, schedule: Q03HX008 (ip), vehicle: saline + alcohol) was 117 % of control, the T/C (endpoint: median survival time, dose: 31.2 micrograms/kg/injection, schedule: Q03HX024 (ip), vehicle: saline + alcohol) was 157 % of control and the T/C (endpoint: median survival time, dose: 31.2 micrograms/kg/injection, schedule: Q03HX024 (sc), vehicle: saline + alcohol) was 103 % of control. The T/C (endpoint: median survival time, dose: 31.3 micrograms/kg/injection, schedule: Q03HX024 (oral), vehicle: saline + alcohol) was 110 % of control, the T/C (endpoint: median survival time, dose: 62.5 micrograms/kg/injection, schedule: Q03HX024 (ip), vehicle: saline + alcohol) was 162 % of control and the T/C (endpoint: median survival time, dose: 62.5 micrograms/kg/injection, schedule: Q03HX024 (sc), vehicle: saline + alcohol) was 165 % of control.
In the case of `CCOC(C)C1C2CCCC(C)C21` (configuration not stated), the T/C (endpoint: mean survival time, dose: 100.0 mg/kg/injection, schedule: Q04DX003 (ip), vehicle: saline) is reported as 102 % of control, the T/C (endpoint: mean survival time, dose: 200.0 mg/kg/injection, schedule: Q04DX003 (ip), vehicle: saline) is reported as 96 % of control and the T/C (endpoint: mean survival time, dose: 400.0 mg/kg/injection, schedule: Q04DX003 (ip), vehicle: saline) is reported as 93 % of control.
